Data published in ChEMBL document CHEMBL1201862, “PubChem BioAssay data set” (2004).
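Values below derive from 48-hour exposures of cells grown in 96-well plates, with endpoints linearly interpolated between the two concentrations bracketing the appropriate inhibition level. GI50: concentration for 50% inhibition of growth.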 Activity calls are given as the source filed them. Cut-off read from the data, not from the text of the source: active = GI50 up to about 1.1 µM and inactive = higher. Square brackets hold non-standard residues; d marks the D form. Peptide text beside a SMILES is read from it.

Assays:
Test in all cases: DTP human tumour cell line panel, 48 h
HOP-92 = tested on: HOP-92
EKVX = tested on: EKVX
NCI-H23 = tested on: NCI-H23
UACC-257 = tested on: UACC-257
SW-620 = tested on: SW-620
NCI-H522 = tested on: NCI-H522
SNB-75 = tested on: SNB-75
HCC 2998 = tested on: HCC 2998
PC-3 = tested on: PC-3
CAKI-1 = tested on: CAKI-1
Hs-578T = tested on: Hs-578T
SF-268 = tested on: SF-268
ACHN = tested on: ACHN
IGROV-1 = tested on: IGROV-1
CCRF-CEM = tested on: CCRF-CEM
HCT-15 = tested on: HCT-15
KM12 = tested on: KM12
UACC-62 = tested on: UACC-62
RPMI-8226 = tested on: RPMI-8226
SK-MEL-28 = tested on: SK-MEL-28

| Structure (SMILES) | GI50 (HOP-92) | GI50 (EKVX) | GI50 (NCI-H23) | GI50 (UACC-257) | GI50 (SW-620) | GI50 (NCI-H522) | GI50 (SNB-75) | GI50 (HCC 2998) | GI50 (PC-3) | GI50 (CAKI-1) | GI50 (Hs-578T) | GI50 (SF-268) | GI50 (ACHN) | GI50 (IGROV-1) | GI50 (CCRF-CEM) | GI50 (HCT-15) [µM] | GI50 (KM12) | GI50 (UACC-62) | GI50 (RPMI-8226) | GI50 (SK-MEL-28) |
| --- | --- | --- | --- | --- | --- | --- | --- | --- | --- | --- | --- | --- | --- | --- | --- | --- | --- | --- | --- | --- |
| S=C(N/N=C(/c1ccccc1)c1ccccn1)N1CCCCCC1 | 0.55 µM (active) | < 0.0329 µM (active) | 0.0538 µM (active) | < 0.015 µM (active) | < 0.0214 µM (active) | 0.0731 µM (active) | 0.036 µM (active) | 0.176 µM (active) | < 0.0198 µM (active) | 0.0818 µM (active) | 0.3 µM (active) | < 0.0391 µM (active) | < 0.0421 µM (active) | < 0.0198 µM (active) | < 0.0133 µM (active) | < 0.0213 | < 0.0306 µM (active) | 0.0476 µM (active) |  |  |
| N=C(N)NCCC[C@H]1NC(=O)[C@@H](CCC(=O)O)NC(=O)[C@@H](CC(=O)O)NC(=O)[C@@H](CCC(=O)O)NC(=O)[C@H](Cc2c[nH]c3ccccc23)NC1=O (cyclo(W[dE][dD][dE][dR])) | > 7.5 µM (inactive) | > 7.5 µM (inactive) | > 7.5 µM (inactive) | > 7.5 µM (inactive) | > 7.5 µM (inactive) | > 7.5 µM (inactive) |  | > 7.5 µM (inactive) | 0.351 µM (active) | > 7.5 µM (inactive) | > 7.5 µM (inactive) | > 7.5 µM (inactive) | > 7.5 µM (inactive) | > 7.5 µM (inactive) | > 7.5 µM (inactive) | > 7.5 | > 7.5 µM (inactive) | > 7.5 µM (inactive) | > 7.5 µM (inactive) |  |
| CC(O)c1c2c(cc3c1CC1(C3)Cc3cc4c(c(C(C)O)c3C1)CCC4)CCC2 (stereo unspecified) | 15.3 µM (inactive) | 27.9 µM (inactive) | 15.5 µM (inactive) | 13.9 µM (inactive) |  | 13.1 µM (inactive) |  | 17.3 µM (inactive) | 18.7 µM (inactive) |  | 22.5 µM (inactive) |  | 11.2 µM (inactive) | 20.3 µM (inactive) | 5.82 µM (inactive) | 14.8 | 21.8 µM (inactive) | 19.3 µM (inactive) | 12.6 µM (inactive) |  |
| N#CC1=C(N)OC(c2cccc([N+](=O)[O-])c2)C1(C#N)C#N (stereo unspecified) | 16.8 µM (inactive) | 22.1 µM (inactive) | 21.2 µM (inactive) | 17 µM (inactive) | > 10 µM (inactive) | 14.2 µM (inactive) | 0.78 µM (active) | 20.9 µM (inactive) | 23.7 µM (inactive) | 2.98 µM (inactive) | 84.3 µM (inactive) | 26.5 µM (inactive) | 18.2 µM (inactive) | 17.6 µM (inactive) |  | 18.7 | > 10 µM (inactive) | 26.6 µM (inactive) | 18.3 µM (inactive) |  |
| Cc1cn([C@H]2C[C@H](N=[N+]=[N-])[C@@H](CO)O2)c(=O)[nH]c1=O [ZIDOVUDINE] | > 100 µM (inactive) | > 100 µM (inactive) | > 100 µM (inactive) | > 100 µM (inactive) | > 100 µM (inactive) | > 100 µM (inactive) |  | > 100 µM (inactive) | 885 µM (inactive) | > 97.1 µM (inactive) | 885 µM (inactive) |  | > 100 µM (inactive) | > 100 µM (inactive) | 288 µM (inactive) | > 100 | 90.8 µM (inactive) | 239 µM (inactive) | 48.3 µM (inactive) | > 100 µM (inactive) |
| S=P(C1CCCCC1)(C1CCCCC1)C(c1cccnc1)N1CCCC1 (stereo unspecified) | 23.5 µM (inactive) | 19.1 µM (inactive) | 18.7 µM (inactive) | > 100 µM (inactive) | 36.2 µM (inactive) | 20.6 µM (inactive) | 19.4 µM (inactive) |  | 18.3 µM (inactive) | 17.4 µM (inactive) | 35.4 µM (inactive) | 18.5 µM (inactive) | 20.3 µM (inactive) | 17.9 µM (inactive) | 15.8 µM (inactive) | 35.7 | 17.5 µM (inactive) | 22.5 µM (inactive) | 15.5 µM (inactive) | > 100 µM (inactive) |
